Data: patent publication US20230117034A1, “PYRAZOLOTRIAZINES” (Bayer Aktiengesellschaft, priority 2019, published 2023)

Molecular target: CDK12/CycK (Homo sapiens, UniProt Q9NYV4)
Assay: CDK12/CycK high ATP kinase assay (TR-FRET, 2 mM ATP)
Format: biochemical
Settings: 2 mM ATP (high ATP); median; read-out: CDK12/CyclinK, 2 mM ATP (high ATP), IC50-[mol/l] (median)
Outline: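 His-tagged human CDK12/CycK (~0.75 nM) pre-incubated 15 min with compound, then 60 min at 22 °C with 2 mM ATP and 1 µM biotinylated peptide (HEPES pH 7.5, 20 mM MgCl2). EDTA stop; phospho-Ser62 antibody/Eu anti-rabbit and streptavidin-XL665 TR-FRET, 665/620 nm ratio normalised to give IC50.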

CDK12/CycK, sequence (Q9NYV4 with tags, fused parts or gaps): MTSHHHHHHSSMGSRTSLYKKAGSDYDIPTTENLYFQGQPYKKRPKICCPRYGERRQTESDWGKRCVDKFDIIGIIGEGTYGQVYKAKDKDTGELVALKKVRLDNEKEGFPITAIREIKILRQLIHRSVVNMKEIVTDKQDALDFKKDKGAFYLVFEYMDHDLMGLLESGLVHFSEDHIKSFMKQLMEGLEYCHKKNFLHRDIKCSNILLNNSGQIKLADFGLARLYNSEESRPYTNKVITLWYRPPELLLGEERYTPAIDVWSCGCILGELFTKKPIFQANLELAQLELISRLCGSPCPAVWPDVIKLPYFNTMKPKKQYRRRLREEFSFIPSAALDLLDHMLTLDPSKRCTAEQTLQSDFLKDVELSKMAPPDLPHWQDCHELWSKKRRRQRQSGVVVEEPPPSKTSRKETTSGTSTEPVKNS
CDK12/CycK, sequence (O75909 1-300 partner limits assumed): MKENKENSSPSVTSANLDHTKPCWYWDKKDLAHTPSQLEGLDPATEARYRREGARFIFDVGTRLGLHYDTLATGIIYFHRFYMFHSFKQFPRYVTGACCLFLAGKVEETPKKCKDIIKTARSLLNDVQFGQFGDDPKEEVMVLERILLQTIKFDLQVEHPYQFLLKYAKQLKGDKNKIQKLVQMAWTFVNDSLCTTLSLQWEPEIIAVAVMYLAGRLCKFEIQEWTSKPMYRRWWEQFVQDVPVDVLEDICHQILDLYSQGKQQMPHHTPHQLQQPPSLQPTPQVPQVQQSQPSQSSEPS

Row | SMILES | IC50
1 | C[C@H]1COCCN1c1nc(NCc2nc3ccccc3[nH]2)n2ncc(Br)c2n1 [Example 57, N-[(1H-benzimidazol-2-yl)methyl]-8-bromo-2-[(3S)-3-methylmorpholin-4-yl]pyrazolo[1,5-a][1,3,5]triazin-4-amine] | 1.04 µM
2 | Brc1cnn2c(NCc3nc4ccccc4[nH]3)nc(OC3CCCCC3)nc12 [Example 406, N-[(1H-benzimidazol-2-yl)methyl]-8-bromo-2-(cyclohexyloxy)pyrazolo[1,5-a][1,3,5]triazin-4-amine] | > 20 µM
3 | Cc1cnn2c(NCc3nc4ccccc4[nH]3)nc(N(C)CC(C)(C)O)nc12 [Example 397, 1-[(4-{[(1H-benzimidazol-2-yl)methyl]amino}-8-methylpyrazolo[1,5-a][1,3,5]triazin-2-yl)(methyl)amino]-2-methylpropan-2-ol] | > 17.5 µM
4 | CCc1cnn2c(NCc3nc4ccccc4[nH]3)nc(N3CCN(C)CC3)nc12 [Example 434, N-[(1H-benzimidazol-2-yl)methyl]-8-ethyl-2-(4-methylpiperazin-1-yl)pyrazolo[1,5-a][1,3,5] triazin-4-amine] | > 17.6 µM
5 | Cc1cccc(-c2nnc(CNc3nc(N4CCOCC4)nc4c(Br)cnn34)[nH]2)c1 [Example 40, 8-bromo-N-{[5-(3-methylphenyl)-4H-1,2,4-triazol-3-yl]methyl}-2-(morpholin-4-yl)pyrazolo[1,5-a][1,3,5]triazin-4-amine] | 2.44 µM
6 | CN1CCN(c2nc(NCc3nc4c(F)c(F)ccc4[nH]3)n3ncc(C4CC4(F)F)c3n2)CC1 (centres unmarked) [Example 429, N-[(4,5-difluoro-1H-benzimidazol-2-yl)methyl]-8-(2,2-difluorocyclopropyl)-2-(4-methylpiperazin-1-yl)pyrazolo[1,5-a][1,3,5]triazin-4-amine] | > 20 µM
7 | CC(C)c1cnn2c(NCc3ncc(-c4ccccc4)[nH]3)nc(N3CCCCC3)nc12 [Example 36, N-[(5-phenyl-1H-imidazol-2-yl)methyl]-2-(piperidin-1-yl)-8-(propan-2-yl)pyrazolo[1,5-a][1,3,5]triazin-4-amine] | > 20 µM
8 | O=C(O)C(F)(F)F.c1ccc2[nH]c(CNc3nc(N4CCOCC4)nc4c(-c5cncs5)cnn34)nc2c1 [Example 441, trifluoroacetic acid-N-[(1H-benzimidazol-2-yl)methyl]-2-(morpholin-4-yl)-8-(1,3-thiazol-5-yl)pyrazolo[1,5-a][1,3,5]triazin-4-amine (1/1)] | 4.18 µM
9 | Brc1cnn2c(NCc3nnc(-c4ccccc4)[nH]3)nc(N3CCCCC3)nc12 [Example 49, 8-bromo-N-[(5-phenyl-4H-1,2,4-triazol-3-yl)methyl]-2-(piperidin-1-yl)pyrazolo[1,5-a][1,3,5]triazin-4-amine] | 6.12 µM
10 | Fc1cccc(-c2nnc(CNc3nc(N4CCOCC4)nc4c(Br)cnn34)[nH]2)c1 [Example 44, 8-bromo-N-{[5-(3-fluorophenyl)-4H-1,2,4-triazol-3-yl]methyl}-2-(morpholin-4-yl)pyrazolo[1,5-a][1,3,5]triazin-4-amine] | 1.34 µM
11 | COc1cccc2[nH]c(CNc3nc(N4CCOCC4)nc4c(-c5nccs5)cnn34)nc12 [Example 414, N-[(4-methoxy-1H-benzimidazol-2-yl)methyl]-2-(morpholin-4-yl)-8-(1,3-thiazol-2-yl)pyrazolo [1,5-a][1,3,5]triazin-4-amine] | > 5.71 µM
12 | CN(C)CCOc1nc(NCc2nc3ccccc3[nH]2)n2ncc(Br)c2n1 [Example 399, N-[(1H-benzimidazol-2-yl)methyl]-8-bromo-2-[2-(dimethylamino)ethoxy]pyrazolo[1,5-a][1,3,5]triazin-4-amine] | > 20 µM
13 | CCc1cnn2c(NCc3nc4c(OC)cccc4[nH]3)nc(N3CCOCC3)nc12 [Example 433, 8-ethyl-N-[(4-methoxy-1H-benzimidazol-2-yl)methyl]-2-(morpholin-4-yl)pyrazolo[1,5-a][1,3,5]triazin-4-amine] | 2.7 µM
14 | CC(C)COc1nc(NCc2nc3ccccc3[nH]2)n2ncc(Br)c2n1 [Example 409, N-[(1H-benzimidazol-2-yl)methyl]-8-bromo-2-(2-methylpropoxy)pyrazolo[1,5-a][1,3,5]triazin-4-amine] | > 15.8 µM
15 | C[C@@H]1COCCN1c1nc(NCc2nc3ccccc3[nH]2)n2ncc(Br)c2n1 [Example 56, N-[(1H-benzimidazol-2-yl)methyl]-8-bromo-2-[(3R)-3-methylmorpholin-4-yl]pyrazolo[1,5-a][1,3,5]triazin-4-amine] | 5.31 µM
16 | OC[C@@H]1CCCCN1c1nc(NCc2nc3ccccc3[nH]2)n2ncc(Br)c2n1 [Example 59, [(2S)-1-(4-{[(1H-benzimidazol-2-yl)methyl]amino}-8-bromopyrazolo[1,5-a][1,3,5]triazin-2-yl)piperidin-2-yl]methanol] | 0.547 µM

Row | SMILES | IC50
17 | Clc1cc2nc(CNc3nc(N4CCOCC4)nc4c(-c5cncs5)cnn34)[nH]c2cc1Cl [Example 443, N-[(5,6-dichloro-1H-benzimidazol-2-yl)methyl]-2-(morpholin-4-yl)-8-(1,3-thiazol-5-yl)pyrazolo[1,5-a][1,3,5]triazin-4-amine] | 3.98 µM
18 | CCNc1nc(NCc2nnc(-c3ccccc3)[nH]2)n2ncc(C(C)C)c2n1 [Example 38, N^2-ethyl-N^4-[(5-phenyl-4H-1,2,4-triazol-3-yl)methyl]-8-(propan-2-yl)pyrazolo[1,5-a][1,3,5]triazine-2,4-diamine] | > 5.71 µM
19 | Cc1cnn2c(NCc3nc4ccccc4[nH]3)nc(N3CCN(C)CC3)nc12 [Example 396, N-[(1H-benzimidazol-2-yl)methyl]-8-methyl-2-(4-methylpiperazin-1-yl)pyrazolo[1,5-a][1,3,5]triazin-4-amine] | > 20 µM
20 | Brc1cnn2c(NCc3nnc(-c4cccnc4)[nH]3)nc(N3CCOCC3)nc12 [Example 53, 8-bromo-2-(morpholin-4-yl)-N-{[5-(pyridin-3-yl)-4H-1,2,4-triazol-3-yl]methyl}pyrazolo[1,5-a][1,3,5]triazin-4-amine] | 2.03 µM
21 | Brc1cnn2c(NCc3nc4ccccc4[nH]3)nc(OC3CCOCC3)nc12 [Example 405, N-[(1H-benzimidazol-2-yl)methyl]-8-bromo-2-[(oxan-4-yl)oxy]pyrazolo[1,5-a][1,3,5]triazin-4-amine] | > 20 µM
22 | Clc1ccc(-c2nnc(CNc3nc(N4CCOCC4)nc4c(Br)cnn34)[nH]2)cc1 [Example 45, 8-bromo-N-{[5-(4-chlorophenyl)-4H-1,2,4-triazol-3-yl]methyl}-2-(morpholin-4-yl)pyrazolo[1,5-a][1,3,5]triazin-4-amine] | 2.2 µM
23 | CC(C)c1cnn2c(NCc3ncc(-c4ccccc4)[nH]3)nc(N(C)CC(C)(C)O)nc12 [Example 35, 2-methyl-1-{methyl[4-{[(5-phenyl-1H-imidazol-2-yl)methyl]amino}-8-(propan-2-yl)pyrazolo[1,5-a][1,3,5]triazin-2-yl]amino}propan-2-ol] | 2.21 µM
24 | CN1CCN(c2nc(NCc3nc4c(F)c(F)ccc4[nH]3)n3ncc(-c4nccs4)c3n2)CC1 [Example 415, N-[(4,5-difluoro-1H-benzimidazol-2-yl)methyl]-2-(4-methylpiperazin-1-yl)-8-(1,3-thiazol-2-yl)pyrazolo[1,5-a][1,3,5]triazin-4-amine] | > 20 µM
25 | Cc1cnn2c(NCc3nc4c(F)c(F)ccc4[nH]3)nc(N3CCN(C)CC3)nc12 [Example 394, N-[(4,5-difluoro-1H-benzimidazol-2-yl)methyl]-8-methyl-2-(4-methylpiperazin-1-yl)pyrazolo[1,5-a][1,3,5]triazin-4-amine] | > 18.7 µM
26 | Cc1cnn2c(NCc3nc4ccccc4[nH]3)nc(N3CC4CCC(C3)N4)nc12 [Example 401, N-[(1H-benzimidazol-2-yl)methyl]-2-(3,8-diazabicyclo[3.2.1]octan-3-yl)-8-methylpyrazolo[1,5-a][1,3,5]triazin-4-amine] | > 20 µM
27 | FC(F)n1cc(-c2cnn3c(NCc4nc5cc(Cl)c(Cl)cc5[nH]4)nc(N4CCOCC4)nc23)cn1 [Example 423, N-[(5,6-dichloro-1H-benzimidazol-2-yl)methyl]-8-[1-(difluoromethyl)-1H-pyrazol-4-yl]-2-(morpholin-4-yl)pyrazolo[1,5-a][1,3,5]triazin-4-amine] | > 12.9 µM
28 | CN(CC(C)(C)O)c1nc(NCc2nc3c(F)c(F)ccc3[nH]2)n2ncc(C(F)(F)F)c2n1 [Example 402, 1-{[4-{[(4,5-difluoro-1H-benzimidazol-2-yl)methyl]amino}-8-(trifluoromethyl)pyrazolo[1,5-a][1,3,5]triazin-2-yl](methyl)amino}-2-methylpropan-2-ol] | 0.224 µM
29 | Cc1cnn2c(NCc3nc4ccccc4[nH]3)nc(N3CCOCC3)nc12 [Example 393, N-[(1H-benzimidazol-2-yl)methyl]-8-methyl-2-(morpholin-4-yl)pyrazolo[1,5-a][1,3,5]triazin-4-amine] | > 20 µM
30 | FC(F)(F)c1cnn2c(NCc3nnc(-c4ccccc4)[nH]3)nc(N3CCOCC3)nc12 [Example 427, 2-(morpholin-4-yl)-N-[(5-phenyl-4H-1,2,4-triazol-3-yl)methyl]-8-(trifluoromethyl)pyrazolo[1,5-a][1,3,5]triazin-4-amine] | 1.86 µM
31 | FC(F)(F)c1cccc(-c2nnc(CNc3nc(N4CCOCC4)nc4c(Br)cnn34)[nH]2)c1 [Example 52, 8-bromo-2-(morpholin-4-yl)-N-({5-[3-(trifluoromethyl)phenyl]-4H-1,2,4-triazol-3-yl}methyl)pyrazolo[1,5-a][1,3,5]triazin-4-amine] | 1.64 µM
32 | N#Cc1cccc(-c2nnc(CNc3nc(N4CCOCC4)nc4c(Br)cnn34)[nH]2)c1 [Example 55, 3-[5-({[8-bromo-2-(morpholin-4-yl)pyrazolo[1,5-a][1,3,5]triazin-4-yl]amino}methyl)-4H-1,2,4-triazol-3-yl]benzonitrile] | 0.771 µM
